Results from ChEMBL document CHEMBL1201862, “PubChem BioAssay data set” (2004).
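Briefly, cells in 96-well plates were exposed to five compound concentrations for 48 h, and endpoints were estimated by linear interpolation. GI50 is the concentration that inhibits growth by half.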 The source made the active and inactive calls. Cut-off read from the data, not from the text of the source: active = GI50 up to about 1.1 µM and inactive = higher. Where a SMILES comes first, the peptide text is derived from it. The star is where a group is joined. Cbz = O=C(OCc1ccccc1)*; NHNH2 = NN*

Legend:
Test in all cases: inhibition of tumour cell growth, NCI panel, 48 h
HOP-62 = system: HOP-62
HOP-92 = system: HOP-92
HT-29 = system: HT-29
IGROV-1 = system: IGROV-1
MCF7 = system: MCF7
NCI-H226 = system: NCI-H226
OVCAR-3 = system: OVCAR-3
OVCAR-8 = system: OVCAR-8
SF-268 = system: SF-268
SF-295 = system: SF-295
SK-OV-3 = system: SK-OV-3
SNB-19 = system: SNB-19
SW-620 = system: SW-620
UACC-257 = system: UACC-257
CAKI-1 = system: CAKI-1
NCI-H23 = system: NCI-H23
RPMI-8226 = system: RPMI-8226
TK-10 = system: TK-10
SF-539 = system: SF-539
U-251 = system: U-251

| Structure (SMILES) | GI50 (HOP-62) | GI50 (HOP-92) | GI50 (HT-29) | GI50 (IGROV-1) | GI50 (MCF7) | GI50 (NCI-H226) | GI50 (OVCAR-3) | GI50 (OVCAR-8) | GI50 (SF-268) | GI50 (SF-295) | GI50 (SK-OV-3) | GI50 (SNB-19) | GI50 (SW-620) | GI50 (UACC-257) | GI50 (CAKI-1) | GI50 (NCI-H23) | GI50 (RPMI-8226) | GI50 (TK-10) | GI50 (SF-539) | GI50 (U-251) |
| --- | --- | --- | --- | --- | --- | --- | --- | --- | --- | --- | --- | --- | --- | --- | --- | --- | --- | --- | --- | --- |
| CC(C)C(=O)OCC1OC(n2c(Br)nc3c(=O)[nH]c(N)nc32)C(OC(=O)C(C)C)C1OC(=O)C(C)C (stereo not drawn) | > 100 µM (inactive) | > 100 µM (inactive) | 17.8 µM (inactive) | > 10 µM (inactive) | 37.6 µM (inactive) | > 100 µM (inactive) | > 100 µM (inactive) | 31.4 µM (inactive) | 37.1 µM (inactive) | 21.2 µM (inactive) | 30.3 µM (inactive) | 81.8 µM (inactive) | 29.2 µM (inactive) | > 100 µM (inactive) | – | – | – | – | – | – |
| COc1ccc(C2=C(OC(=O)N(C)C)c3cccn3-c3cc(Cl)ccc3S2)cc1 | > 10 µM (inactive) | 6.78 µM (inactive) | > 10 µM (inactive) | > 10 µM (inactive) | 8.51 µM (inactive) | – | – | > 10 µM (inactive) | > 10 µM (inactive) | > 10 µM (inactive) | > 10 µM (inactive) | – | > 10 µM (inactive) | > 10 µM (inactive) | > 10 µM (inactive) | > 10 µM (inactive) | 2.73 µM (inactive) | > 10 µM (inactive) | – | – |
| COc1ccc(OC)c2sc(N3C(=O)/C(=C/c4cccc([N+](=O)[O-])c4)N=C3c3ccccc3)nc12 | 54.1 µM (inactive) | 94.2 µM (inactive) | > 100 µM (inactive) | 43.4 µM (inactive) | 21.2 µM (inactive) | – | 35.6 µM (inactive) | 28.5 µM (inactive) | 57.5 µM (inactive) | 51.8 µM (inactive) | 50.6 µM (inactive) | > 100 µM (inactive) | 23.7 µM (inactive) | 38.3 µM (inactive) | > 100 µM (inactive) | 86.7 µM (inactive) | 22.5 µM (inactive) | 74 µM (inactive) | 41.1 µM (inactive) | 32 µM (inactive) |
| NCCCC[C@H](N)C(=O)Nc1ccc(-c2nc3ccccc3s2)cc1Cl | 13.2 µM (inactive) | 18.8 µM (inactive) | 6.79 µM (inactive) | < 0.01 µM (active) | < 0.034 µM (active) | – | 0.247 µM (active) | 7.71 µM (inactive) | 8.34 µM (inactive) | 5 µM (inactive) | 16.3 µM (inactive) | 12.6 µM (inactive) | 11.5 µM (inactive) | 14.1 µM (inactive) | 4.85 µM (inactive) | – | – | 0.0353 µM (active) | – | 2.65 µM (inactive) |
| OC1(c2ccc(Cl)cc2)c2c(ccc3c2OCO3)C2=NCCN21 (stereo not drawn) | 58.3 µM (inactive) | 16.7 µM (inactive) | 29.6 µM (inactive) | 20.5 µM (inactive) | 33.7 µM (inactive) | – | 54.6 µM (inactive) | 67.5 µM (inactive) | 45 µM (inactive) | 36.6 µM (inactive) | 68.1 µM (inactive) | 73.6 µM (inactive) | 97.9 µM (inactive) | 19.1 µM (inactive) | 46.9 µM (inactive) | 63 µM (inactive) | 19.2 µM (inactive) | 15 µM (inactive) | 36.1 µM (inactive) | 44.9 µM (inactive) |
| O=C1c2ccccc2-c2nc(-c3ccccc3)cc3c2c1nc1ccccc13 | 16.7 µM (inactive) | – | 13.2 µM (inactive) | 4.12 µM (inactive) | 4.51 µM (inactive) | 16.6 µM (inactive) | 0.141 µM (active) | 16.4 µM (inactive) | 19.7 µM (inactive) | 12 µM (inactive) | 19.5 µM (inactive) | 19.4 µM (inactive) | 13.2 µM (inactive) | 14.2 µM (inactive) | 27.2 µM (inactive) | 3.6 µM (inactive) | 0.479 µM (active) | 15.3 µM (inactive) | – | 10.9 µM (inactive) |
| CCOC(=O)CCC(NC(=O)OCc1ccccc1)C(=O)NC(CCC(=O)OCC)C(=O)NN (stereo not drawn) (Cbz-Glu(OEt)-Glu(OEt)-NHNH2; configuration not given here) | > 100 µM (inactive) | > 100 µM (inactive) | > 100 µM (inactive) | > 100 µM (inactive) | > 100 µM (inactive) | > 100 µM (inactive) | – | > 100 µM (inactive) | – | – | – | > 100 µM (inactive) | > 100 µM (inactive) | > 100 µM (inactive) | – | – | > 100 µM (inactive) | > 100 µM (inactive) | – | > 100 µM (inactive) |
| CCOC(=O)c1c(-c2ccc(Br)cc2)ccn1C | > 10 µM (inactive) | – | > 10 µM (inactive) | > 10 µM (inactive) | > 10 µM (inactive) | > 10 µM (inactive) | > 10 µM (inactive) | > 10 µM (inactive) | > 10 µM (inactive) | > 10 µM (inactive) | > 10 µM (inactive) | > 10 µM (inactive) | > 10 µM (inactive) | > 10 µM (inactive) | > 10 µM (inactive) | > 10 µM (inactive) | > 10 µM (inactive) | > 10 µM (inactive) | > 10 µM (inactive) | > 10 µM (inactive) |
| COc1ccc(C2NC(N)=C(C#N)C3=C2C(C)CCC3)cc1OC (stereo not drawn) | 15.9 µM (inactive) | – | 40 µM (inactive) | 15.5 µM (inactive) | 43.2 µM (inactive) | > 100 µM (inactive) | 31.7 µM (inactive) | 75.7 µM (inactive) | > 100 µM (inactive) | 12.3 µM (inactive) | 75.3 µM (inactive) | > 100 µM (inactive) | > 100 µM (inactive) | 43.5 µM (inactive) | > 100 µM (inactive) | > 100 µM (inactive) | 10.2 µM (inactive) | 92.3 µM (inactive) | 35.2 µM (inactive) | 41.8 µM (inactive) |
| Cn1c(O)c(C2=Nc3ccccc3C2=O)c2ccccc21 | > 100 µM (inactive) | > 100 µM (inactive) | > 100 µM (inactive) | > 100 µM (inactive) | > 100 µM (inactive) | > 100 µM (inactive) | > 100 µM (inactive) | > 100 µM (inactive) | > 100 µM (inactive) | > 100 µM (inactive) | > 100 µM (inactive) | > 100 µM (inactive) | > 100 µM (inactive) | > 100 µM (inactive) | > 100 µM (inactive) | > 100 µM (inactive) | > 100 µM (inactive) | > 100 µM (inactive) | – | > 100 µM (inactive) |
| CCOC1=NC(C(F)(F)F)(C(F)(F)F)N=C(/N=C(/N)N(C)C(C(C)C)P(=O)(OC(C)C)OC(C)C)O1 (stereo not drawn) | > 100 µM (inactive) | – | > 100 µM (inactive) | 69.8 µM (inactive) | > 100 µM (inactive) | > 100 µM (inactive) | 67.6 µM (inactive) | 48.5 µM (inactive) | 48.4 µM (inactive) | 83.8 µM (inactive) | > 100 µM (inactive) | > 100 µM (inactive) | 49.5 µM (inactive) | 70.3 µM (inactive) | > 100 µM (inactive) | 95.3 µM (inactive) | 45.9 µM (inactive) | > 100 µM (inactive) | > 100 µM (inactive) | 64.9 µM (inactive) |
| CC[S+]1C2=C(CC(C)(C)CC2=O)[N-]c2ccccc21 (stereo not drawn) | > 100 µM (inactive) | > 100 µM (inactive) | > 100 µM (inactive) | > 100 µM (inactive) | 24.4 µM (inactive) | > 100 µM (inactive) | > 100 µM (inactive) | > 100 µM (inactive) | > 100 µM (inactive) | 31.6 µM (inactive) | > 100 µM (inactive) | > 100 µM (inactive) | > 100 µM (inactive) | > 100 µM (inactive) | > 100 µM (inactive) | > 100 µM (inactive) | > 100 µM (inactive) | > 100 µM (inactive) | – | > 100 µM (inactive) |
| Cc1c[n+]2c3ccccc3c3ccccc3c2s1.[O-][Cl+3]([O-])([O-])[O-] | 6.52 µM (inactive) | 16.6 µM (inactive) | 14.1 µM (inactive) | 29.4 µM (inactive) | – | 0.536 µM (active) | 0.787 µM (active) | 3.3 µM (inactive) | 0.697 µM (active) | 5.97 µM (inactive) | 10.7 µM (inactive) | 3.36 µM (inactive) | 5.4 µM (inactive) | 4.26 µM (inactive) | 3.2 µM (inactive) | 0.422 µM (active) | 8.15 µM (inactive) | 1.39 µM (inactive) | 4.59 µM (inactive) | 0.368 µM (active) |
| CCCCCCCCCCOC(=O)c1cc[n+](C)cc1 | 16.8 µM (inactive) | 15.8 µM (inactive) | 16.7 µM (inactive) | 16.6 µM (inactive) | – | 18.1 µM (inactive) | 15.6 µM (inactive) | 17.2 µM (inactive) | 20 µM (inactive) | 16.7 µM (inactive) | 16 µM (inactive) | 16.2 µM (inactive) | 19.1 µM (inactive) | 19.8 µM (inactive) | 16.6 µM (inactive) | 19.9 µM (inactive) | 16.3 µM (inactive) | 17.1 µM (inactive) | 16.3 µM (inactive) | 15.7 µM (inactive) |
| OCC1OC(n2nc(-c3ccccc3)nc2-c2cnccn2)C(O)C(O)C1O (stereo not drawn) | > 100 µM (inactive) | > 100 µM (inactive) | > 100 µM (inactive) | > 100 µM (inactive) | > 100 µM (inactive) | – | > 100 µM (inactive) | > 100 µM (inactive) | – | > 100 µM (inactive) | > 100 µM (inactive) | > 100 µM (inactive) | > 100 µM (inactive) | > 100 µM (inactive) | – | > 100 µM (inactive) | > 100 µM (inactive) | – | > 100 µM (inactive) | > 100 µM (inactive) |
